Measurements taken from patent US11739098B2 (BRISTOL-MYERS SQUIBB COMPANY, priority 2017, dated 2023).

Columns and labels:
Assay type in all cases: cell-based
human TLR8 = molecular target: T1, human TLR8 (Homo sapiens, UniProt Q9NR97); assay: TLR8 inhibition reporter assay (HEK-Blue cells, SEAP reporter, R848 stimulation); settings: HEK-Blue cells overexpressing human TLR8, SEAP reporter, R848 15.9 μM
T1 construct: host or cells: HEK-Blue cells (HEK293-derived reporter line)
T1 sequence (Q9NR97 27-1041): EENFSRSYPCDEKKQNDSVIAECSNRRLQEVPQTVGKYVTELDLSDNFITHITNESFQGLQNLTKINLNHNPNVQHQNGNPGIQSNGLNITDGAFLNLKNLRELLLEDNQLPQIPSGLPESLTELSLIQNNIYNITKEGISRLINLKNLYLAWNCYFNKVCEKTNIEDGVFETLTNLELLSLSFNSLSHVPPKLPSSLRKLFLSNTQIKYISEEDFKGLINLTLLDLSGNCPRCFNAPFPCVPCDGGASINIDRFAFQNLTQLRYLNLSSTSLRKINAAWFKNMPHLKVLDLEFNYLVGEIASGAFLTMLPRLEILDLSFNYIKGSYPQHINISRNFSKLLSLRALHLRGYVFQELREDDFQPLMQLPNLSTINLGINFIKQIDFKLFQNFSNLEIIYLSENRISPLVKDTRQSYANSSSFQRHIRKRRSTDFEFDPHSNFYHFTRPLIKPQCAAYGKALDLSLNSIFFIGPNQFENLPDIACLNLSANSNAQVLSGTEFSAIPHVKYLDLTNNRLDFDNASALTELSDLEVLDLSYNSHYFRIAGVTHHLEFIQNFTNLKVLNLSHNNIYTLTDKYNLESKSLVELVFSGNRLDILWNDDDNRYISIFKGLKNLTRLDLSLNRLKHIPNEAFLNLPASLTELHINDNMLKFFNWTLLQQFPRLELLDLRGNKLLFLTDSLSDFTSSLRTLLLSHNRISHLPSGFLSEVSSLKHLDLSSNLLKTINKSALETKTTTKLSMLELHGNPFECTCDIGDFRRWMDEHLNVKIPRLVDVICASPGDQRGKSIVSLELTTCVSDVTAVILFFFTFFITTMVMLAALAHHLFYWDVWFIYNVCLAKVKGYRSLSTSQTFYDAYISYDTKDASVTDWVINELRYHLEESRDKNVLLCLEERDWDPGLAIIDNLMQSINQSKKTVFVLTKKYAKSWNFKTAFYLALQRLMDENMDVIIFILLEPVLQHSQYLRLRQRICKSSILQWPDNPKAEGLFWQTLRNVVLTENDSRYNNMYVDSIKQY
Procedure, shortened: (§1)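 Percent inhibition of agonist-induced SEAP secretion in HEK-Blue cells after 22 h at 37 °C. Stimuli: 7.5 μM gardiquimod, 15.9 μM R848, 5 nM ODN2006 for TLR7, TLR8 and TLR9, added after 30 min compound exposure over a 0.05 nM–50 μM range.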

human TLR7 = molecular target: T2, human TLR7 (Homo sapiens, UniProt Q9NYK1); assay: TLR7 inhibition reporter assay (HEK-Blue cells, SEAP reporter, gardiquimod stimulation); settings: HEK-Blue cells overexpressing human TLR7, SEAP reporter, gardiquimod 7.5 μM
T2 construct: host or cells: HEK-Blue cells (HEK293-derived reporter line)
T2 sequence (Q9NYK1 27-1049): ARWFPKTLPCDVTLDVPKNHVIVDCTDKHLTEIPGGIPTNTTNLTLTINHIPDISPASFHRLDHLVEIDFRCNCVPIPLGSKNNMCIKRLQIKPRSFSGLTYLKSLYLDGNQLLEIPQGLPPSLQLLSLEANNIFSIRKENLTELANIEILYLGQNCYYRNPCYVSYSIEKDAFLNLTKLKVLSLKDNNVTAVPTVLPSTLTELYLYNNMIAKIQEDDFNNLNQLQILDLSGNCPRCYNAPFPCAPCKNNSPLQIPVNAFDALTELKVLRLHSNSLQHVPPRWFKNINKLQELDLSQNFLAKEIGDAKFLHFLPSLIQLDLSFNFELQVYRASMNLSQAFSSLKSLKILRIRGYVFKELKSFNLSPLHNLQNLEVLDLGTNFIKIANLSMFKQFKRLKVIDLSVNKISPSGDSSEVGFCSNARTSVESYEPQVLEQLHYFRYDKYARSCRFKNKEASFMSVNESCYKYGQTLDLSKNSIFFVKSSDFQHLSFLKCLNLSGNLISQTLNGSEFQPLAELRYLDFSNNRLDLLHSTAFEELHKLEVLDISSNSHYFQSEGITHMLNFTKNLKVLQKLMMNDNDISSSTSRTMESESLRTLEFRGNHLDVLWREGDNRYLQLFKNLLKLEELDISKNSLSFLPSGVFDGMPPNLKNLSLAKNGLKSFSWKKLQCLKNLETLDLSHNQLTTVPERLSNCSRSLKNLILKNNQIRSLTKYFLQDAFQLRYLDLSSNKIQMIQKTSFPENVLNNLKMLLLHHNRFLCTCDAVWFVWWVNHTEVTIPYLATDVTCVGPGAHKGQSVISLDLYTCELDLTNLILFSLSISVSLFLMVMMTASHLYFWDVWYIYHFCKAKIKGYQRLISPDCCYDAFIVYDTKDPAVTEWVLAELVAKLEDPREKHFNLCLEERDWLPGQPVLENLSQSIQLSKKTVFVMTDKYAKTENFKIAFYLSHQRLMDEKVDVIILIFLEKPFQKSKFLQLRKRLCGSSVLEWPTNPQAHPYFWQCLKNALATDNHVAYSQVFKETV
Procedure, shortened: as §1

human TLR9 = molecular target: T3, human TLR9 (Homo sapiens, UniProt Q9NR96); assay: TLR9 inhibition reporter assay (HEK-Blue cells, SEAP reporter, ODN2006 stimulation); settings: HEK-Blue cells overexpressing human TLR9, SEAP reporter, ODN2006 5 nM
T3 construct: host or cells: HEK-Blue cells (HEK293-derived reporter line)
T3 sequence (Q9NR96 26-1032): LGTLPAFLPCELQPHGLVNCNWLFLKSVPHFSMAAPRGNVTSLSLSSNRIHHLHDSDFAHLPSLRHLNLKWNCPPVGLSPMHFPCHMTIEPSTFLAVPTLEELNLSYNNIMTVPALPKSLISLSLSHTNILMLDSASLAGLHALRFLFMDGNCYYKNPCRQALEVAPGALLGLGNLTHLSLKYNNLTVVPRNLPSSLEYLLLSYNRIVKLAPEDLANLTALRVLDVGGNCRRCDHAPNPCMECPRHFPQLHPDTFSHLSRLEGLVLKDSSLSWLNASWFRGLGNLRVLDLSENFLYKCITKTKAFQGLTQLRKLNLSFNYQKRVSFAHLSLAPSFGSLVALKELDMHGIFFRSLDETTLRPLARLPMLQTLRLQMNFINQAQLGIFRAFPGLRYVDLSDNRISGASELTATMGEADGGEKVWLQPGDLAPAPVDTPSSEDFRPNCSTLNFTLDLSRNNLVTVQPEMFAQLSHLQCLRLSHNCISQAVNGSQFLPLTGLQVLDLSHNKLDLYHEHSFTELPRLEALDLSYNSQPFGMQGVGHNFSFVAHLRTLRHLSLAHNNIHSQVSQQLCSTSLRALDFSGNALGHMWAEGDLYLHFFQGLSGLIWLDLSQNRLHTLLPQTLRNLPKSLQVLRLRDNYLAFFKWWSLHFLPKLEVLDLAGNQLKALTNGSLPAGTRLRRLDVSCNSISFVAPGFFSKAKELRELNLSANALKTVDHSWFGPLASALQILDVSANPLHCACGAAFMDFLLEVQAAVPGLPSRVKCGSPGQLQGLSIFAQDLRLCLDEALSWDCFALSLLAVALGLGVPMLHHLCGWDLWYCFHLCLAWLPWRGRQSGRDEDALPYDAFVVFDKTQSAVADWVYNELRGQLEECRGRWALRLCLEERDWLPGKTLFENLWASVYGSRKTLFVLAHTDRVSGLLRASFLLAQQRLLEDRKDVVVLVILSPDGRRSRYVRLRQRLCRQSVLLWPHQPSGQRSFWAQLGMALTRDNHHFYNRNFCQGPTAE
Procedure, shortened: as §1

SMILES | IC50 (human TLR8) [µM] | IC50 (human TLR7) [µM] | IC50 (human TLR9) [µM]
Cc1cc2nccn2cc1-c1[nH]c2ccc(C3CCN(CCCN(C)C)CC3)cc2c1C(C)C [Example 856, 3-(4-(3-isopropyl-2-(7-methylimidazo[1,2-a]pyridin-6-yl)-1H-indol-5-yl)piperidin-1-yl)-N,N-dimethylpropan-1-amine] | < 0.1 | < 0.1 | 0.1 to 1
Cc1c(-c2ccnn3ccnc23)[nH]c2ccc(C3CCN(C4CCN(C(C)C)CC4)CC3)cc12 [Example 807, 8-(5-(1′-isopropyl-[1,4′-bipiperidin]-4-yl)-3-methyl-1H-indol-2-yl)imidazo[1,2-b]pyridazine] | 1 to 50 | 1 to 50 | 0.1 to 1
CC(C)c1c(-c2ccc3ncnn3n2)[nH]c2ccc(C3CCN(C4COC4)CC3)cc12 [Example 729, 6-(3-isopropyl-5-(1-(oxetan-3-yl)piperidin-4-yl)-1H-indol-2-yl)-[1,2,4]triazolo[1,5-b]pyridazine] | 0.1 to 1 | < 0.1 | 1 to 50
Cc1nn2ccc(-c3[nH]c4ccc(C5CCN(CC(=O)N(C)C)CC5)cc4c3C(C)C)nc2c1F [Example 400, 2-(4-(2-(3-fluoro-2-methylpyrazolo[1,5-a]pyrimidin-5-yl)-3-isopropyl-1H-indol-5-yl)piperidin-1-yl)-N,N-dimethylacetamide] | 1 to 50 | > 3.13 | 1 to 50
CC(C)c1c(-c2cc(CO)c3nccn3c2)[nH]c2ccc(C3CCNCC3)cc12 [Example 124, (6-(3-isopropyl-5-(piperidin-4-yl)-1H-indol-2-yl)imidazo[1,2-a]pyridin-8-yl)methanol] | < 0.1 | < 0.1 | 0.1 to 1
Cc1cc(-c2[nH]c3ccc(C4CCNCC4)cc3c2C(C)C)cc2cnnn12 [Example 78, 5-(3-isopropyl-5-(piperidin-4-yl)-1H-indol-2-yl)-7-methyl-[1,2,3]triazolo[1,5-a]pyridine] | < 0.1 | < 0.1 | 1 to 50
Cc1cc2nnnn2cc1-c1[nH]c2ccc(C3CCN(C4CCS(=O)(=O)CC4)CC3)cc2c1C(C)C [Example 791, 4-(4-(3-isopropyl-2-(7-methyltetrazolo[1,5-a]pyridin-6-yl)-1H-indol-5-yl)piperidin-1-yl)tetrahydro-2H-thiopyran 1,1-dioxide] | < 0.1 | < 0.1 | 1 to 50
Cc1cc(-c2[nH]c3ccc(C4CCN(C(=O)CCN5CCS(=O)(=O)CC5)CC4)cc3c2C(C)C)cn2nnnc12 [Example 634, 3-(1,1-dioxidothiomorpholino)-1-(4-(3-isopropyl-2-(8-methyltetrazolo[1,5-a]pyridin-6-yl)-1H-indol-5-yl)piperidin-1-yl)propan-1-one] | 0.1 to 1 | < 0.1 | > 50
COc1cc(-c2[nH]c3ccc(C4CCN(CC(=O)N(C)C)CC4)cc3c2C(C)C)cc2nccn12 [Example 357, 2-(4-(3-isopropyl-2-(5-methoxyimidazo[1,2-a]pyridin-7-yl)-1H-indol-5-yl)piperidin-1-yl)-N,N-dimethylacetamide] | 0.1 to 1 | 0.1 to 1 | 0.1 to 1
COc1cc(-c2[nH]c3ccc(C4CCN(CCS(C)(=O)=O)CC4)cc3c2C(C)C)nn2ncnc12 [Example 782, 6-(3-isopropyl-5-(1-(2-(methylsulfonyl)ethyl)piperidin-4-yl)-1H-indol-2-yl)-8-methoxy-[1,2,4]triazolo[1,5-b]pyridazine] | < 0.1 | < 0.1 | 1 to 50
CCc1c(-c2ccc3oc(=O)[nH]c3c2)[nH]c2ccc(C3CCNCC3)cc12 [Example 168, 5-(3-ethyl-5-(piperidin-4-yl)-1H-indol-2-yl)benzo[d]oxazol-2(3H)-one] | 0.1 to 1 | 0.1 to 1 | 0.1 to 1
CCc1c(-c2ccnc3cnn(C)c23)[nH]c2ccc(C3CCNCC3)cc12 [Example 41, 7-(3-ethyl-5-(piperidin-4-yl)-1H-indol-2-yl)-1-methyl-1H-pyrazolo[4,3-b]pyridine] | 0.1 to 1 | 0.1 to 1 | 1 to 50
Cc1c(-c2[nH]c3ccc(C4CCN(C(=O)CN(C)C)CC4)cc3c2C(C)C)cn2nnnc2c1C [Example 468, 2-(dimethylamino)-1-(4-(2-(7,8-dimethyltetrazolo[1,5-a]pyridin-6-yl)-3-isopropyl-1H-indol-5-yl)piperidin-1-yl)ethan-1-one] | < 0.1 | < 0.1 | 1 to 50
CC(C)c1c(-c2ccnc3[nH]ncc23)[nH]c2ccc(C3CCN(C4CCOCC4)CC3)cc12 [Example 682, 4-(3-isopropyl-5-(1-(tetrahydro-2H-pyran-4-yl)piperidin-4-yl)-1H-indol-2-yl)-1H-pyrazolo[3,4-b]pyridine] | < 0.1 | < 0.1 | 1 to 50
